In the first assay the target is T1, Recombinant human renin (Homo sapiens, UniProt P00797).
T1 sequence (P00797 67-406): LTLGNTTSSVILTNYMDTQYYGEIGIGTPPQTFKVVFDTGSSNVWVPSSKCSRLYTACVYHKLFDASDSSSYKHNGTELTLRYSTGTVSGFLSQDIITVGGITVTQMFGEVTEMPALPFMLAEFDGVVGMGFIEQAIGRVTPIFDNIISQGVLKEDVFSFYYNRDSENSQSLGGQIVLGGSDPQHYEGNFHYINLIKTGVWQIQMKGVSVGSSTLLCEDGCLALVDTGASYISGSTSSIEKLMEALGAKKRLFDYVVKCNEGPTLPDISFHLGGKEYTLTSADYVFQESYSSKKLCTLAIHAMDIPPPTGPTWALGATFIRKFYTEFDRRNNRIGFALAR
Description: Inhibitory activity against human renin (fluorogenic peptide substrate). In kind it is biochemical. Particulars: 37° C. for 1 hour, read-out: IC50.
As a reminder, the IC50 is the concentration needed to halve the response being measured. As for `COCCCOc1nc([C@@H](C)N(C(=O)[C@H]2CNCCO2)C2CC2)cc2ccccc12` [Example 32], the IC50 is 3.3 nM.

For `COC(=O)NCCCn1cc([C@H](C)N(C(=O)[C@H]2CNCCO2)C2CC2)c2ccc(C)nc21` [Example 50], the IC50 was 1 nM.

Regarding `CCOc1ccnc2c([C@@H](C)N(C(=O)[C@H]3CNCCO3)C3CC3)cn(CCCCOC)c12` [Example 101], the IC50 stood at 2.5 nM.

Still in this assay, the particulars now being: 50% inhibitory concentration (IC50) against human renin, 37° C. for 1 hour.
With `COC(=O)NCCCc1cc([C@@H](C)N(C(=O)[C@H]2CNCCO2)C2CC2)cnc1C1CCCC1` [Example 137], the IC50 was determined as 0.4 nM.

As to `COC(=O)NCCCn1nc([C@@H](C)N(C(=O)[C@H]2CNCCO2)C2CC2)cc1-c1ccc(F)cn1` [Example 177], the IC50 came to 1 nM.

With `COC(=O)NCCCc1sc([C@@H](C)N(C(=O)[C@H]2CNCCO2)C2CC2)cc1Br` [Example 438], the concentration for half-maximal inhibition (IC50) worked out at 2.4 nM.

With `COC(=O)NCCCc1sc([C@@H](C)N(C(=O)[C@H]2CN[C@@H](C)CO2)C2CC2)nc1-c1cccc(Cl)c1` [Example 368], the IC50 was determined as 8.4 nM.

Turning to `COC(=O)NCCCn1nc([C@@H](C)N(C(=O)[C@H]2CNCCO2)C2CC2)cc1-c1cccnc1` [Example 186], the IC50 is 0.4 nM.

Take `COC(=O)NCCCn1nc([C@@H](C)N(C(=O)[C@H]2CNC[C@@H](C(=O)N(C)C)O2)C2CC2)c2ccc(C)nc21` [Example 256]: the IC50 came to 3.1 nM.

Turning to `COC(=O)NCCCc1cc([C@@H](C)N(C(=O)[C@H]2CNCCO2)C2CC2)sc1-c1ccccc1C(=O)NS(=O)(=O)c1ccccc1` [Example 288], the IC50 worked out at 0.4 nM.

With `COC(=O)NCCCn1cc([C@@H](C)N(C(=O)[C@H]2CNC[C@@H](C(F)(F)F)O2)C2CC2)nc1-c1ccccc1` [Example 219], the IC50 amounted to 0.4 nM.

With `COCCCc1cn(C)c2cnc([C@@H](C)N(C(=O)[C@H]3CNCCO3)C3CC3)cc12` [Example 125], the IC50 worked out at 1.3 nM.

As for `COC(=O)NCCCc1cc([C@@H](C)N(C(=O)[C@H]2CNCCO2)C2CC2)nn1C(C)C` [Example 225], the IC50 is 0.5 nM.

With `COC(=O)NCCCn1cc([C@@H](C)N(C(=O)[C@H]2CN[C@@H](C)CO2)C2CC2)nc1-c1ccc(F)cc1` [Example 280], the IC50 is 0.3 nM.

On to `CCOc1ncc([C@@H](C)N(C(=O)[C@H]2CNCCO2)C2CC2)cc1CCCNC(=O)OC` [Example 251], for which the IC50 amounted to 0.8 nM.

For `COC(=O)NCCCc1nc([C@@H](C)N(C(=O)[C@H]2CNCCO2)C2CC2)sc1-c1cncnc1` [Example 416], the IC50 came to 3 nM.

For the compound `COC(=O)NCCCc1cc([C@@H](C)N(C(=O)[C@H]2CNCCO2)C2CC2)sc1-c1cccc(-c2nnn[nH]2)c1` [Example 263], the 50% inhibitory concentration (IC50) was determined as 0.2 nM.

Consider `COC(=O)NCCCc1cc([C@@H](C)N(C(=O)[C@H]2CNCCO2)C2CC2)nc2ccc(F)cc12` [Example 142], for which the IC50 was found to be 0.5 nM.

With `CCOc1ncc([C@@H](C)N(C(=O)[C@H]2CNCCO2)C2CC2)nc1CCCNC(=O)OC` [Example 391], the IC50 came to 2 nM.

As to `COC(=O)NCCCn1nc([C@@H](C)N(C(=O)[C@H]2CNCCO2)C2CC2)cc1-c1ccc(C)cn1` [Example 184], the IC50 worked out at 0.5 nM.

In the case of `COC[C@@H]1CNC[C@H](C(=O)N(C2CC2)[C@H](C)c2cn(CCCNC(=O)OC)c3ncccc23)O1` [Example 292], the 50% inhibitory concentration (IC50) came to 0.4 nM.

For the compound `COC(=O)NCCCc1cc(C(C)N(C(=O)[C@H]2CNCCO2)C2CC2)sc1C(C)CO` (some centres unmarked) [Example 420], the IC50 came to 2.7 nM.

For `CCCCCc1cc([C@@H](C)N(C(=O)[C@H]2CNC[C@@H](C)O2)C2CC2)sc1-c1ccccc1-c1nn[nH]n1` [Example 294], the IC50 turned out to be 6 nM.

Turning to `COC(=O)NCCCc1sc([C@@H](C)N(C(=O)[C@H]2CNCCO2)C2CC2)cc1-c1ccccc1CO` [Example 435], the IC50 worked out at 1.3 nM.

For the compound `COC(=O)NCCCc1cc([C@@H](C)N(C(=O)[C@H]2CNCCO2)C2CC2)nc2ccoc12` [Example 167], the half-maximal inhibitory concentration (IC50) was found to be 4.1 nM.

Take `COC(=O)NCCCc1cc(C(C)N(C(=O)[C@H]2CNCCO2)C2CC2)sc1C(C)C` (some centres unmarked) [Example 418]: the IC50 came to 3.9 nM.

Source of the values: patent US9556159B2, “Renin inhibitor” (MITSUBISHI TANABE PHARMA CORPORATION, priority 2012, dated 2017).
